Data: paper PMC12332667, “Role of Structural Modifications in Peptidomimetic Compounds as Potential Antimicrobial Agents against Staphylococcus aureus and Streptococcus pyogenes: Balancing Bioavailability, Safety, and Antimicrobial Activity” (ACS Omega, 2025)
Converted amounts (≈) assume the structure as drawn.

Key:
[1] = system: human dermal fibroblast cell line (46BR.1N); assay: XTT cell proliferation assay, fibroblasts; type: cell-based; settings: XTT, 48 and 72 h, 0.01–150 μg/mL
Experimental: (§1) In our study, we used two distinct cell types: immortalized human HaCaT keratinocytes (DKFZ, Heidelberg, Germany) and a human dermal fibroblast cell line (46BR.1N). […] Cultures were maintained in a humidified atmosphere with 5% CO2 at 37 °C in 25 cm^2 culture flasks with the medium replenished every 2 days. The condition of the cells was monitored using optical microscopy. […] After 24 h of incubation, the medium was replaced with serum-free HG-DMEM containing appropriate concentrations of peptidomimetics. All solutions used in the experiments were prepared with double-distilled water or with the addition of ethanol under sterile conditions to ensure compatibility with the conditions of the bacteriological assay. For 72 h of incubation, half of the medium was replaced with fresh medium after 48 h, and cells were stimulated with peptides for a second time. The XTT cell proliferation assay was then performed according to the manufacturer’s instructions (Roche, Switzerland). Cells were treated with the peptides for either 48 or 72 h, followed by the addition of XTT reagent, and the plates were then incubated at 37 °C in a 5% CO2 environment for 4 h. Plate readings were taken using a standard plate reader at a wavelength of 490 nm (OD = 490 nm). […] Statistical significance was determined with a Mann–Whitney U test with statistical significance p ≤ 0.05. Analysis was performed with Statistica software, and graphs were prepared in GraphPad Prism.

[2] = system: S. aureus ATCC 43300; assay: MIC/MBC broth microdilution, S. aureus; type: cell-based, Staphylococcus aureus; settings: S. aureus
[3] = system: S. agalactiae ATCC 27956; assay: MIC/MBC broth microdilution, S. agalactiae; type: cell-based, Streptococcus agalactiae; settings: S. agalactiae
Experimental: (§2) S. aureus (ATCC 29213),S. pyogenes (ATCC 19615),Streptococcus agalactiae (ATCC 27956),Escherichia coli (ATCC 25922),Proteus vulgaris (ATCC 6896),K. pneumoniae (ATCC 700603) andP. aeruginosa (ATCC 10145) reference strains, as well asStaphylococcus cohnii, Enterococcus faecalis, Staphylococcus schleiferi, Staphylococcus intermedius and Streptococcus mutans clinical isolates, were used to test the antibacterial activity of the peptidomimetics. Bacteria were aerobically cultured for 18 h at 37 °C in plates with sterilized brain heart infusion (BHI) broth (Sigma-Aldrich, USA) media mixed with bacteriological agar (Sigma-Aldrich, USA) using the streak plate method. After 18 h, BHI broth was inoculated to 0.5 on the McFarland scale and diluted to approximately 10^5 CFU/mL. To achieve a final stock concentration of 1024 μg/mL, the peptidomimetics were dissolved in sterile water, and 5–10% of absolute ethanol or dimethyl sulfoxide (DMSO) was added. The antibacterial activities were determined by using the standard broth microdilution method of the National Committee for Clinical Laboratory Standards. The process involved adding serially diluted peptidomimetics to consecutive wells of a 96-well microtiter plate (Brand, Germany) holding media with microorganisms. The inoculated plates treated with peptides were then placed in an incubator at 37 °C for 18 h. The MIC value was determined as the lowest concentration of peptidomimetic at which there was no obvious growth (equal or more than 90% of the untreated sample). […] The lowest concentration yielding growth in no more than 3 colonies, corresponding to at least a 99.9% kill rate, was taken as MBC. Each biological replicate included control wells with the addition of water, DMSO, and ethanol as respective solvent controls. All experiments were conducted with consistent adherence to growth and sterility controls and were performed at least in technical triplicate with three biological repeats.

[4] = system: P. vulgaris ATCC 6896; assay: MIC/MBC broth microdilution, P. vulgaris; type: cell-based, Proteus vulgaris
Experimental: as §2

[5] = system: S. schleiferi c.i.; assay: MIC/MBC broth microdilution, S. schleiferi; type: cell-based, Staphylococcus schleiferi
Experimental: as §2

[6] = Hydrophobicity by reverse-phase chromatography; type: physicochemical; settings: acetonitrile content in the mobile phase at the retention time
Text: Reverse-phase chromatography was employed to assess the hydrophobicity characteristics of the peptidomimetics. Hydrophobicity was quantified by determining the acetonitrile content in the mobile phase at the retention time of a peptidyl derivative (Table S2). The least hydrophobic compound (40% acetonitrile) was A-198, which aligns with the calculations of hydrophobicity by SwissADME and pkCSM (Table ). Next in the hydrophobicity sequence were A-197, A-220, A-219, A-174, and A-221, eluting with 42.5-43.9% of acetonitrile. Then there were followed by […], and A-179, with the acetonitrile percentage of 44.8-49.8. The compounds A-176, A-20, A-152, A-134, and A-210 needed over 50% of acetonitrile to be eluted from the column.

[7] = system: immortalized human HaCaT keratinocytes; assay: XTT cell proliferation assay, keratinocytes; type: cell-based; settings: XTT, 48 and 72 h, 0.01–150 μg/mL
Experimental: as §1

[8] = system: S. cohnii c.i.; assay: MIC/MBC broth microdilution, S. cohnii; type: cell-based, Staphylococcus cohnii
Experimental: as §2

[9] = system: fibroblasts (46BR.1N); assay: LDH cytotoxicity test, fibroblasts; type: cell-based; settings: 48 h, 50-150 μg/mL
Experimental: (§3) In our study, we used two distinct cell types: immortalized human HaCaT keratinocytes (DKFZ, Heidelberg, Germany) and a human dermal fibroblast cell line (46BR.1N). […] Cultures were maintained in a humidified atmosphere with 5% CO2 at 37 °C in 25 cm^2 culture flasks with the medium replenished every 2 days. The condition of the cells was monitored using optical microscopy.
(§4) Cell death in immortalized human keratinocytes (HaCaT) and fibroblasts (46BR.1N) was measured by quantifying the lactate dehydrogenase (LDH) activity using a commercial kit (Roche, Switzerland). Cells were seeded in 96-well plates at a density of 5000 cells per well in DMEM high glucose medium supplemented with 10% FBS. After 24 h of incubation, the medium was replaced with serum-free medium containing various concentrations of peptidomimetics (50, 100, and 150 μg/mL). After 48 h, supernatants were collected for LDH analysis. Plate readings were taken spectrophotometrically using a 450 nm wavelength. Cell death measurements were normalized to an untreated control (0%), with 1% Triton X-100 detergent used as a positive control to induce maximum LDH release, indicating maximal cytotoxicity. Statistical significance was determined with a Mann–Whitney U test with a statistical significance p ≤ 0.05. Analysis was performed with Statistica software (Krakow, Poland) and graphs were prepared in GraphPad Prism (Boston, USA).

[10] = system: S. pyogenes ATCC 19615; assay: MIC/MBC broth microdilution, S. pyogenes; type: cell-based, Streptococcus pyogenes; settings: S. pyogenes
Experimental: as §2

[11] = system: S. mutans c.i.; assay: MIC/MBC broth microdilution, S. mutans; type: cell-based, Streptococcus mutans
Experimental: as §2

[12] = system: P. aeruginosa ATCC 10145; assay: MIC/MBC broth microdilution, P. aeruginosa; type: cell-based
Experimental: as §2

[13] = system: K. pneumoniae ATCC 700603; assay: MIC/MBC broth microdilution, K. pneumoniae; type: cell-based
Experimental: as §2

[14] = system: E. coli ATCC 25922; assay: MIC/MBC broth microdilution, E. coli; type: cell-based, Escherichia coli
Experimental: as §2

[15] = system: E. faecalis c.i.; assay: MIC/MBC broth microdilution, E. faecalis; type: cell-based, Enterococcus faecalis
Experimental: as §2

[16] = system: immortalized human keratinocytes (HaCaT); assay: LDH cytotoxicity test, keratinocytes; type: cell-based; settings: 48 h, 50-150 μg/mL
Experimental: as §3, §4

Q: What does the source list for `CC(C)[C@@H](CNC(=O)/C=C/c1ccccc1)NC(=O)[C@H](Cc1c[nH]cn1)NC(=O)[C@H](CCCCN)NC(=O)OCc1ccccc1` [Compound A-174]?
A: effect on proliferation, in words [1]: did not exert any negative impact; MBC ([2]; H2O): 512 µg/mL (≈ 810 µM); MIC ([2]; H2O): 256 µg/mL (≈ 405 µM); MBC ([2]; water additive DMSO): 512 µg/mL (≈ 810 µM); MIC ([2]; water additive DMSO): 512 µg/mL (≈ 810 µM); MBC ([2]; water additive EtOH): 512 µg/mL (≈ 810 µM); MIC ([2]; water additive EtOH): 512 µg/mL (≈ 810 µM); MBC ([3]; H2O): 512 µg/mL (≈ 810 µM); MIC ([3]; H2O): 512 µg/mL (≈ 810 µM); MBC ([3]; water additive DMSO): 512 µg/mL (≈ 810 µM); MIC ([3]; water additive DMSO): 512 µg/mL (≈ 810 µM); MBC ([3]; water additive EtOH): 512 µg/mL (≈ 810 µM); MIC ([3]; water additive EtOH): 256 µg/mL (≈ 405 µM); MIC ([4]; H2O): > 512 µg/mL; MIC ([4]; water additive DMSO): > 512 µg/mL; MBC ([4]; water additive EtOH): > 512 µg/mL; MIC ([4]; water additive EtOH): 512 µg/mL (≈ 810 µM); MIC ([5]; H2O): > 512 µg/mL; MIC ([5]; water additive DMSO): > 512 µg/mL; MBC ([5]; water additive EtOH): 512 µg/mL (≈ 810 µM); MIC ([5]; water additive EtOH): 512 µg/mL (≈ 810 µM); % AcCN (acetonitrile required for elution from the column) [6]: 42.9%; effect on proliferation, in words [7]: did not exert any negative impact; MBC ([8]; H2O): 256 µg/mL (≈ 405 µM); MIC ([8]; H2O): 256 µg/mL (≈ 405 µM); MBC ([8]; water additive DMSO): 256 µg/mL (≈ 405 µM); MBC ([8]; water additive EtOH): 256 µg/mL (≈ 405 µM); cytotoxicity (LDH), in words [9]: no cytotoxicity; MBC ([10]; H2O): 256 µg/mL (≈ 405 µM); MBC ([10]; water additive DMSO): 256 µg/mL (≈ 405 µM); MBC ([10]; water additive EtOH): 256 µg/mL (≈ 405 µM); MIC ([11]; H2O): > 512 µg/mL; MIC ([11]; water additive DMSO): > 512 µg/mL; MIC ([11]; water additive EtOH): > 512 µg/mL; MIC ([12]; H2O): > 512 µg/mL; MIC ([12]; water additive DMSO): > 512 µg/mL; MBC ([12]; water additive EtOH): > 512 µg/mL; MIC ([12]; water additive EtOH): 512 µg/mL (≈ 810 µM); MIC ([13]; H2O): > 512 µg/mL; MIC ([13]; water additive DMSO): > 512 µg/mL; MIC ([13]; water additive EtOH): > 512 µg/mL; MIC ([14]; H2O): > 512 µg/mL; MIC ([14]; water additive DMSO): > 512 µg/mL; MIC ([14]; water additive EtOH): > 512 µg/mL; MIC ([15]; H2O): > 512 µg/mL; MIC ([15]; water additive DMSO): > 512 µg/mL; MIC ([15]; water additive EtOH): > 512 µg/mL; cytotoxicity (LDH), in words [16]: no cytotoxicity
